According to patent publication US20250345426A1, “METHODS FOR MAKING AND USING THERAPEUTIC CELLS” (THE REGENTS OF THE UNIVERSITY OF CALIFORNIA, priority 2022, published 2025):

Legend:
Leu16 CAR-T cells = assay: T-cell subtype distribution and Tn/scm enrichment, Leu16 CAR-T cells; assay type: cell-based, human; conditions: 6 days of pharmacological modulation, relative to vehicle
Description: FIG. 3A-G. Pharmacological modulation of Leu16 CAR-T cells modestly dampens tonic signaling while enhancing anti-tumor efficacy. (A) Pictorial representation of the correlation between tonic signaling-modulated rituximab CAR-T cells and in vivo anti-tumor efficacy. (B) Pictorial representation of pharmacological modulation strategy aimed to either increase or decrease Leu16 CAR tonic signaling; c-MYC (MYCi975) and SREBP (betulin) inhibition increased tonic signaling whereas mTORC1 (rapamycin) inhibition decreased tonic signaling in rituximab CAR-T cells. (C) % distribution of T-cell subtypes in CAR^+ T cells after 6 days of pharmacological modulation (left) and Tn/scm enrichment (right). […] (F) Tumor signal (in photons/sec/cm2/sr) in individual animals as quantified by bioluminescence imaging. […]
Antibody staining for flow-cytometry analysis. EGFRt expression was measured with biotinylated cetuximab (Eli Lilly; biotinylated in-house), followed by PE-conjugated streptavidin (Jackson ImmunoResearch #016-110-084). CAR expression was quantified by surface epitope staining using anti-Fc (Alexa Fluor 488, Jackson ImmunoResearch #709-546-098). […] T-cell subtype of CAR-T cells was evaluated by antibody staining for CD45RO (VioBlue®, clone REA611, Miltenyi #130-119-620) and CD62L (APC, clone DREG56, Invitrogen #17-0629-42) after 5-6 days of inhibitor culture (FIG. 1, FIG. 3). […]

Raji target cells = assay: 24-hr lysis assay of inhibitor-treated Leu16 CAR-T cells against Raji; assay type: cell-based; conditions: three E:T ratios, vs vehicle-treated
Description: FIG. 4A-C. Characterization of pharmacologically treated Leu16 CAR-T cells in vitro. (A) TNF-α production CAR+ T cells in the absence of antigen stimulation as quantified by intracellular flow cytometry. Data bars indicate the means of technical triplicates ±1 S.D. ns not statistically significant. (B) Leu16 CAR-T cell fold expansion after 6 days of inhibitor culture was tracked. The bars in FIGS. 4A and 4B, represent data from, EGFRt, Leu16-28z (vehicle), Leu16-28z (MYCi975), Leu16-28z (Betulin), and Leu16-28z (Rapamycin), respectively, from left to right. (C) A 24-hr lysis assay of CAR-T cells against Raji target cells at three effector-to-target (E:T) ratios. Data bars indicate the means of technical triplicates±1 S.D. Percent lysis was normalized to cell counts in target-only wells.
Cytotoxicity assay with Raji cells. Raji cells were seeded at 2×10^5 cells/well in 96-well U-bottom plate and coincubated with CAR^+ T cells at 1:1, 3.33:1, and 10:1 E:T ratios. Untransduced T cells were added to wells as needed to normalize for differing transduction efficiencies and ensure the total number of T cells per well was consistent throughout. Remaining target cells were quantified by MACSQuant VYB flow cytometer 24-hr post co-incubation.

Molecule | enrichment of Tn/scm cells (Leu16 CAR-T cells) | lysis of Raji tumor cells (Raji target cells)
MYCi975 | increased enrichment | clustered together
C=C(C)[C@@H]1CC[C@]2(CO)CC[C@]3(C)[C@H](CC[C@@H]4[C@@]5(C)CC[C@H](O)C(C)(C)[C@@H]5CC[C@]43C)[C@@H]12 [betulin, Betulin] | increased enrichment | clustered together
